In patent US20190298715A1, “IMMUNE EFFECTOR CELL THERAPIES WITH ENHANCED EFFICACY” (Novartis AG, priority 2016, published 2019):
Numbering of substitutions follows the chain as printed. Blank lines part the entries; values can stand above or below the molecule they belong to.

Tests used:
full-length LSD1 = molecular target: T1, full-length LSD1 (Homo sapiens, UniProt O60341); assay: FL-LSD1 LC-MS assay; type: biochemical; details: 0.4 nM FL-LSD1, 0.25 μM FAD, 0.5 μM H3K4me1 peptide, 60 min; read-out: LCMS IC50 (LSD1 IC50 as measured by LCMS)
T1 construct: the full-length LSD1 and 0.5 μM FAD in reaction buffer
Experimental: Representative compounds of the present disclosure were serially and separately diluted 3-fold in DMSO to obtain a total of twelve concentrations. […] A 5 μL solution of 1 μM of the peptide substrate H3K4me1 (histone H3[1-21]-biotin) in reaction buffer was added to each initiate reaction. […] The conversion ratio of H3K4me1 substrate to the H3K4me0 product was calculated by dividing the peak area of the H3K4me0 peptide by the total peak area of all those two peptides on the assumption that the ionization efficiency of those peptides is the same. The data were then fit to a dose response equation using the program Helios to get the IC50 values of the test compound.

human T cells = assay: T cell phenotype after anti-CD3/CD28 expansion with LSD1 shRNA (flow cytometry); type: cell-based; details: 10 days anti-CD3/CD28 expansion, transfected with DNA encoding shRNA
Experimental: Flow cytometry was performed on a four laser Fortessa (Becton-Dickinson).
Inhibition of LSD1 by shRNA promotes the expansion of TSCM cells T cells were isolated by negative selection and expanded with anti-CD3/CD28 beads at a 3:1 ratio for 10 days. On day 1, T cells were transduced with lentiviral expression vectors containing LSD1 shRNA targeting sequences that co-expressed the fluorescent protein mCherry. Following expansion, T cell phenotypes of mCherry+ T cells were assessed by flow cytometry.

IC50 (full-length LSD1): 12 nM
Molecule: CS(=O)(=O)c1ccc(-c2cc(-c3cc(C#N)c(N4CCNCC4)[nH]3)ccc2Cl)cc1 [5-(6-chloro-4′-(methylsulfonyl)biphenyl-3-yl)-2-(piperazin-1-yl)-1H-pyrrole-3-carbonitrile]

IC50 (full-length LSD1): 9 nM
Molecule: CN(C)C1CCN(S(=O)(=O)c2ccc(-n3ncc4c(-c5ccc(C6CCNCC6)cc5)cccc43)cc2)CC1 [N,N-dimethyl-1-((4-(4-(4-(piperidin-4-yl)phenyl)-1H-indazol-1-yl)phenyl)sulfonyl)piperidin-4-amine]

IC50 (full-length LSD1): 5 nM
Molecule: COc1ccc(-n2cc(-c3cccc(N)c3C)c3cc(C#N)c(C)cc32)cc1 [NVS Compound 2, 3-(3-amino-2-methylphenyl)-1-(4-methoxyphenyl)-6-methyl-1H-indole-5-carbonitrile]

Molecule: LSD1 2: shRNA to LSD1, encoded by SEQ ID NO: 127 (DNA CAGAAGGCCTAGACATTAAACCTCGAGGTTTAATGTCTAGGCCTTCTGTTTTTTGA; the letters are possibly those of the target site)
percentage of CD4+ T cells having the TSCM (CD45RA+CD62L+CCR7+CD27+CD95+) phenotype (human T cells): enriched in TSCM
percentage of CD8+ T cells having the TSCM (CD45RA+CD62L+CCR7+CD27+CD95+) phenotype (human T cells): ~50%

B1: LSD1 1A: shRNA to LSD1, encoded by SEQ ID NO: 125 (nucleic acid)
DNA: CGGTTGCTAGAAGCTACATCTGTTAATATTCATAGCAGATGTAGCTTCTAGCAACCGTTTTTTGA
percentage of CD4+ T cells having the TSCM (CD45RA+CD62L+CCR7+CD27+CD95+) phenotype (human T cells): enriched in TSCM
percentage of CD8+ T cells having the TSCM (CD45RA+CD62L+CCR7+CD27+CD95+) phenotype (human T cells): ~50%

B2: LSD1 1B: shRNA to LSD1, encoded by SEQ ID NO: 126 (nucleic acid)
DNA: B1 DNA with C14T, C20T
modifications: the letters are possibly those of the target site
percentage of CD4+ T cells having the TSCM (CD45RA+CD62L+CCR7+CD27+CD95+) phenotype (human T cells): up to 20%
percentage of CD8+ T cells having the TSCM (CD45RA+CD62L+CCR7+CD27+CD95+) phenotype (human T cells): ~50%
